The record followed here is patent US9556221B2, “N-acetyl amino acid ESTER derivatives of betulin and preparation method thereof” (Northeast Forestry University, priority 2014, dated 2017).

Format in all cases: cell-based
Assay [1] relates to ovarian cancer cell lines MDAH2774. In words: MTT assay, in vitro anti-tumor activity screening, MDAH2774. As to conditions: Homo sapiens, MDAH 2774, MDAH2774 ovarian cancer cell line, read-out: half inhibitory concentration IC50, MDAH2774. The text has this: (§1) The present invention also relates to the application of the N-acetyl amino acid ester derivatives of betulin for the preparation of anti-tumor drugs.
(§2) Human colon tumor cell lines HT29, pancreatic cancer cell lines MPC2 and ovarian cancer cell lines MDAH2774 were selected to determine the half inhibitory concentrations (IC50s) of the N-acetyl amino acid ester derivatives of betulin, betulinic acid and betulin, and the results are shown in Table 2.
In general terms: Tetrazolium dyes change colour on reduction, which living cells bring about.

Assay [2] relates to Human colon tumor cell lines HT29. As to the kind of experiment: MTT assay, in vitro anti-tumor activity screening, HT29. The following applies: HT-29, HT29 colon tumor cell line, read-out: half inhibitory concentration IC50, HT29.
Source text: as §1, §2

Assay [3] relates to pancreatic cancer cell lines MPC2. As to the kind of experiment: MTT assay, in vitro anti-tumor activity screening, MPC2. As to conditions: Homo sapiens, MPC2 pancreatic cancer cell line, read-out: half inhibitory concentration IC50, MPC2.
Source text: as §1, §2

Structures are written as SMILES. A value given as a limit tells only on which side of the number the result lay.

For the compound `C=C(C)[C@@H]1CC[C@]2(CO)CC[C@]3(C)[C@H](CC[C@@H]4[C@@]5(C)CC[C@H](O)C(C)(C)[C@@H]5CC[C@]43C)[C@@H]12` [Betulin, Lup-20(29)-ene-3β,28-diol], the IC50 in assay [1], in assay [2] and in assay [3] was more than 100 µM in each case.
For the compound `C=C(C)[C@@H]1CC[C@]2(C(=O)O)CC[C@]3(C)[C@H](CC[C@@H]4[C@@]5(C)CC[C@H](O)C(C)(C)[C@@H]5CC[C@]43C)[C@@H]12` [Betulinic acid, reference compound], the IC50 in assay [1] was 39.5 ± 2.19 µM; in assay [3], 38.6 ± 2.91 µM.
As to `C=C(C)[C@@H]1CC[C@]2(COC(=O)C(C)NC(C)=O)CC[C@]3(C)C(CC[C@@H]4[C@@]5(C)CC[C@H](O)C(C)(C)[C@@H]5CC[C@]43C)[C@@H]12` (some centres unmarked) [YWZ-002], the IC50 in assay [1] amounted to 10.6 ± 0.62 µM; in assay [2] it was 6.58 ± 0.24 µM; in assay [3], 4.24 ± 0.23 µM.
For `C=C(C)[C@@H]1CC[C@]2(COC(=O)C(NC(C)=O)C(C)C)CC[C@]3(C)C(CC[C@@H]4[C@@]5(C)CC[C@H](O)C(C)(C)[C@@H]5CC[C@]43C)[C@@H]12` (some centres unmarked) [YWZ-003] the same measures were 10.9 ± 0.76 µM, 14.1 ± 0.83 µM and 11.4 ± 0.89 µM.
For `C=C(C)[C@@H]1CC[C@]2(COC(=O)C3CCCN3C(C)=O)CC[C@]3(C)C(CC[C@@H]4[C@@]5(C)CC[C@H](O)C(C)(C)[C@@H]5CC[C@]43C)[C@@H]12` (some centres unmarked) [YWZ-004], in that order: 2.13 ± 0.05 µM, 8.88 ± 0.62 µM and 5.32 ± 0.21 µM.
In the case of `C=C(C)[C@@H]1CC[C@]2(COC(=O)C(CC(C)C)NC(C)=O)CC[C@]3(C)C(CC[C@@H]4[C@@]5(C)CC[C@H](O)C(C)(C)[C@@H]5CC[C@]43C)[C@@H]12` (some centres unmarked) [YWZ-005], the IC50 came to 1.38 ± 0.04 µM in assay [1], 18.1 ± 1.51 µM in assay [2] and 19.7 ± 0.83 µM in assay [3].
For `C=C(C)[C@@H]1CC[C@]2(COC(=O)C(NC(C)=O)C(C)CC)CC[C@]3(C)C(CC[C@@H]4[C@@]5(C)CC[C@H](O)C(C)(C)[C@@H]5CC[C@]43C)[C@@H]12` (some centres unmarked) [YWZ-006] the same measures were 7.26 ± 0.1 µM, 15 ± 1.31 µM and 10.2 ± 0.69 µM.
